Data from PubChem BioAssay AID1259407 (Chemical Carcinogenesis Research Information System (CCRIS), 2018).
Activity calls are given as the source filed them. The rule behind the calls is not given here.

Test system: CCRIS mutagenicity, Ames/micronucleus/aberration tests
Test: CCRIS mutagenicity studies
[1] = Test System: AMES SALMONELLA TYPHIMURIUM, Strain/Indicator: TA98, Metabolic Activation: NONE, Method: STANDARD PLATE
[2] = Test System: AMES SALMONELLA TYPHIMURIUM, Strain/Indicator: TA98, Metabolic Activation: RAT, LIVER, S-9, AROCLOR 1254, Method: STANDARD PLATE
[3] = Test System: AMES SALMONELLA TYPHIMURIUM, Strain/Indicator: TA100, Metabolic Activation: NONE, Method: STANDARD PLATE
[4] = Test System: AMES SALMONELLA TYPHIMURIUM, Strain/Indicator: TA100, Metabolic Activation: RAT, LIVER, S-9, AROCLOR 1254, Method: STANDARD PLATE
[5] = Test System: AMES SALMONELLA TYPHIMURIUM, Strain/Indicator: TA1535, Metabolic Activation: NONE, Method: STANDARD PLATE
[6] = Test System: AMES SALMONELLA TYPHIMURIUM, Strain/Indicator: TA1535, Metabolic Activation: RAT, LIVER, S-9, AROCLOR 1254, Method: STANDARD PLATE
[7] = Test System: AMES SALMONELLA TYPHIMURIUM, Strain/Indicator: TA1537, Metabolic Activation: NONE, Method: STANDARD PLATE
[8] = Test System: AMES SALMONELLA TYPHIMURIUM, Strain/Indicator: TA1537, Metabolic Activation: RAT, LIVER, S-9, AROCLOR 1254, Method: STANDARD PLATE
[9] = Test System: AMES SALMONELLA TYPHIMURIUM, Strain/Indicator: TA98, Metabolic Activation: NONE, Method: PREINCUBATION
[10] = Test System: AMES SALMONELLA TYPHIMURIUM, Strain/Indicator: TA100, Metabolic Activation: NONE, Method: PREINCUBATION
[11] = Test System: AMES SALMONELLA TYPHIMURIUM, Strain/Indicator: TA100, Metabolic Activation: RAT, LIVER, S-9, AROCLOR 1254, Method: PREINCUBATION

O=[N+]([O-])c1cccc(OS(=O)(=O)c2cccc3cccnc23)c1
mutagenic call [1]: inactive; negative | mutagenic call [2]: active; positive | mutagenic call [3]: inactive; negative | mutagenic call [4]: active; positive | mutagenic call [5]: inactive; negative | mutagenic call [6]: inactive; negative | mutagenic call [7]: inactive; negative | mutagenic call [8]: inactive; negative

O=Nc1cc2c3ccccc3ccc2c2ccccc12
mutagenic call [9]: active; positive | mutagenic call (Test System: AMES SALMONELLA TYPHIMURIUM, Strain/Indicator: TA98, Metabolic Activation: RAT, LIVER, S-9, AROCLOR 1254, Method: PREINCUBATION): active; positive | mutagenic call [10]: active; positive | mutagenic call [11]: active; positive | mutagenic call (Test System: CHINESE HAMSTER OVARY, Strain/Indicator: CHO-K1-BH4 (HGPRT)/6-THIOGUANINE, Metabolic Activation: NONE, Method: STANDARD PLATE): active; positive | mutagenic call (Test System: CHINESE HAMSTER OVARY, Strain/Indicator: CHO-UV5 (HGPRT)/6-THIOGUANINE, Metabolic Activation: NONE, Method: STANDARD PLATE): active; positive

O=C(O)COc1cc(Cl)c(Cl)cc1Cl
mutagenic call (End Point: IN VITRO CHROMOSOMAL ABERRATIONS, Test System: CHINESE HAMSTER OVARY CELLS, Metabolic Activation: NONE): inactive; negative | mutagenic call (End Point: IN VITRO CHROMOSOMAL ABERRATIONS, Test System: CHINESE HAMSTER OVARY CELLS, Metabolic Activation: RAT, LIVER, S-9, AROCLOR 1254): active; positive; precipitation occurred at all doses | mutagenic call (Test System: AMES SALMONELLA TYPHIMURIUM, Strain/Indicator: TA97, Metabolic Activation: NONE, Method: STANDARD PLATE): inactive; negative | mutagenic call (Test System: AMES SALMONELLA TYPHIMURIUM, Strain/Indicator: TA97, Metabolic Activation: RAT, LIVER, S-9, AROCLOR 1254, Method: STANDARD PLATE): inactive; negative | mutagenic call (Test System: AMES SALMONELLA TYPHIMURIUM, Strain/Indicator: TA98, Metabolic Activation: NONE): inactive; negative | mutagenic call [1]: inactive; negative | mutagenic call (Test System: AMES SALMONELLA TYPHIMURIUM, Strain/Indicator: TA98, Metabolic Activation: RAT, LIVER, S-9, AROCLOR 1254): inactive; negative | mutagenic call [2]: inactive; negative | mutagenic call (Test System: AMES SALMONELLA TYPHIMURIUM, Strain/Indicator: TA100, Metabolic Activation: NONE): inactive; negative | mutagenic call [3]: inactive; negative | mutagenic call (Test System: AMES SALMONELLA TYPHIMURIUM, Strain/Indicator: TA100, Metabolic Activation: RAT, LIVER, S-9, AROCLOR 1254): inactive; negative | mutagenic call [4]: inactive; negative | mutagenic call (Test System: AMES SALMONELLA TYPHIMURIUM, Strain/Indicator: TA102, Metabolic Activation: NONE): inactive; negative | mutagenic call (Test System: AMES SALMONELLA TYPHIMURIUM, Strain/Indicator: TA102, Metabolic Activation: NONE, Method: STANDARD PLATE): inactive; negative | mutagenic call (Test System: AMES SALMONELLA TYPHIMURIUM, Strain/Indicator: TA102, Metabolic Activation: RAT, LIVER, S-9, AROCLOR 1254): inactive; negative | mutagenic call (Test System: AMES SALMONELLA TYPHIMURIUM, Strain/Indicator: TA102, Metabolic Activation: RAT, LIVER, S-9, AROCLOR 1254, Method: STANDARD PLATE): inactive; negative | mutagenic call (Test System: AMES SALMONELLA TYPHIMURIUM, Strain/Indicator: TA104, Metabolic Activation: NONE): inactive; negative | mutagenic call (Test System: AMES SALMONELLA TYPHIMURIUM, Strain/Indicator: TA104, Metabolic Activation: RAT, LIVER, S-9, AROCLOR 1254): inactive; negative

CSC[C@H](NC(=O)COc1cccc2cnccc12)C(=O)N[C@@H](Cc1ccccc1)[C@H](O)C(=O)N1CSC[C@H]1C(=O)NC(C)(C)C
mutagenic call (Test System: AMES SALMONELLA TYPHIMURIUM, Strain/Indicator: TA98, Metabolic Activation: HAMSTER, LIVER, S-9, AROCLOR 1254, Method: STANDARD PLATE): inactive; negative | mutagenic call [1]: inactive; negative | mutagenic call [2]: inactive; negative | mutagenic call (Test System: AMES SALMONELLA TYPHIMURIUM, Strain/Indicator: TA100, Metabolic Activation: HAMSTER, LIVER, S-9, AROCLOR 1254, Method: STANDARD PLATE): inactive; negative | mutagenic call [3]: inactive; negative | mutagenic call [4]: inactive; negative | mutagenic call (Test System: AMES SALMONELLA TYPHIMURIUM, Strain/Indicator: TA1535, Metabolic Activation: HAMSTER, LIVER, S-9, AROCLOR 1254, Method: STANDARD PLATE): inactive; negative | mutagenic call [5]: inactive; negative | mutagenic call [6]: inactive; negative | mutagenic call (Test System: AMES SALMONELLA TYPHIMURIUM, Strain/Indicator: TA1537, Metabolic Activation: HAMSTER, LIVER, S-9, AROCLOR 1254, Method: STANDARD PLATE): inactive; negative | mutagenic call [7]: inactive; negative | mutagenic call [8]: inactive; negative | mutagenic call (Test System: AMES SALMONELLA TYPHIMURIUM, Strain/Indicator: TA1538, Metabolic Activation: HAMSTER, LIVER, S-9, AROCLOR 1254, Method: STANDARD PLATE): inactive; negative | mutagenic call (Test System: AMES SALMONELLA TYPHIMURIUM, Strain/Indicator: TA1538, Metabolic Activation: NONE, Method: STANDARD PLATE): inactive; negative | mutagenic call (Test System: AMES SALMONELLA TYPHIMURIUM, Strain/Indicator: TA1538, Metabolic Activation: RAT, LIVER, S-9, AROCLOR 1254, Method: STANDARD PLATE): inactive; negative | mutagenic call (Test System: Mouse lymphoma, Strain/Indicator: L5178Y (tk+/tk-), Metabolic Activation: None, Method: Suspension/plate): inactive; negative | mutagenic call (Test System: Mouse lymphoma, Strain/Indicator: L5178Y (tk+/tk-), Metabolic Activation: Rat, Liver, S-9, Aroclor 1254, Method: Suspension/plate): active; equivocal (previous evaluation positive)

Cc1cccc(Nc2ccncc2S(=O)(=O)NC(=O)NC(C)C)c1
mutagenic call [1]: inactive; negative | mutagenic call (Test System: AMES SALMONELLA TYPHIMURIUM, Strain/Indicator: TA98, Metabolic Activation: RAT, LIVER, S-9, Method: STANDARD PLATE): inactive; negative | mutagenic call [3]: inactive; negative | mutagenic call (Test System: AMES SALMONELLA TYPHIMURIUM, Strain/Indicator: TA100, Metabolic Activation: RAT, LIVER, S-9, Method: STANDARD PLATE): inactive; negative | mutagenic call [5]: inactive; negative | mutagenic call (Test System: AMES SALMONELLA TYPHIMURIUM, Strain/Indicator: TA1535, Metabolic Activation: RAT, LIVER, S-9, Method: STANDARD PLATE): inactive; negative | mutagenic call [7]: inactive; negative | mutagenic call (Test System: AMES SALMONELLA TYPHIMURIUM, Strain/Indicator: TA1537, Metabolic Activation: RAT, LIVER, S-9, Method: STANDARD PLATE): inactive; negative | mutagenic call (Test System: E. COLI, Strain/Indicator: WP2 UVRA, Metabolic Activation: NONE, Method: STANDARD PLATE): inactive; negative | mutagenic call (Test System: E. COLI, Strain/Indicator: WP2 UVRA, Metabolic Activation: RAT, LIVER, S-9, Method: STANDARD PLATE): inactive; negative

O[C@@H]1[C@H]2O[C@H]2c2c(ccc3cc4ccc5ccccc5c4nc23)[C@H]1O
mutagenic call [9]: active; positive | mutagenic call [10]: active; positive | mutagenic call (Test System: CHINESE HAMSTER V-79, Strain/Indicator: V-79/8-AZAGUANINE, Metabolic Activation: NONE, Method: STANDARD PLATE): active; positive

O=[N+]([O-])c1ccccc1CO
mutagenic call [9]: inactive; negative | mutagenic call [10]: inactive; negative | mutagenic call [11]: inactive; negative

[O-][n+]1c2ccc3ccccc3c2cc2c3ccccc3ccc21
mutagenic call (Test System: AMES SALMONELLA TYPHIMURIUM, Strain/Indicator: TA100, Metabolic Activation: GUINEA PIG, LIVER, S-9, 3-METHYLCHOLANTHRENE, Method: STANDARD PLATE): inactive; negative | mutagenic call (Test System: CHINESE HAMSTER V-79, Strain/Indicator: V-79/6-THIOGUANINE, Metabolic Activation: GUINEA PIG, LIVER, S-9, 3-METHYLCHOLANTHRENE): active; positive
